These results are taken from patent US20040235813A1, “Compounds that inhibit hsp90 and stimulate hsp70 and hsp40, useful in the prevention or treatment of diseases associated with protein aggregation and amyloid formation” (priority 2001, published 2004).

Each structure is given as a SMILES string.

One assay has as its system Hsp70. Kind of assay: Immunoblot of Hsp70 expression in GA treated COS-1 cells expressing EGFP-HD72Q. The format is cell-based. The note with it: GA 360 nM, 40 hours. The protocol:
(§1) Equal amounts (10 μg) of protein were loaded. […] Aggregates were detected using the filter retardation assay.
(§2) Control cells were treated with DMSO.
(§3) Protein concentration was determined by the BioRad assay.

For assay [1], the system named is SDS-insoluble EGFP-HD72Q protein aggregates. As to the kind of experiment: Filter retardation assay for SDS-insoluble EGFP-HD72Q protein aggregates in COS-1 cells. The format is cell-based, monkey. The conditions noted are these: filtration assay. The protocol:
(§4) (A) Expression of EGFP-HD72Q, Hsp40, Hsp70, and Hsp90 in COS-1 cells. […] Equal amounts (10 μg) of protein were loaded. […] Aggregates were detected using the filter retardation assay. Filters were probed with the HD1 antibody and signal intensities quantified using a Fuji-imager (LAS 2000). […] Values shown are the mean of three independent experiments (±S.E).
(§5) A further linker was introduced in order to generate the appropriate reading frame, resulting in pTL1-HA3. Hsp70-pTLHA3 was generated by PCR amplification of the human Hsp70A gene and cloning into pTL1-HA3. Hdj-1-pTL10Flag was generated by ligating the human HDJ-1 gene, derived from pQE9-His-Hsp40 (33), into pTL10SFlag (a kind gift of D. Devys and J.-L. Mandel). pEGFP-HD72Q was generated by PCR amplification of the exon 1 of human HD from patient DNA and cloning into pEGFP-C1 (Clontech). All constructs were verified by sequencing.
Control cells were treated with DMSO. As alternative transfection method, the Lipofectamine Plus Reagent (GibcoBRL Life Technologies) was used according to the manufacturer's instruction.
SDS-PAGE and Western blot analysis was performed according to standard procedures. For the filter retardation assay (27,30) protein samples (1-20 μg) were heated at 98° C. for 3 min in 2% SDS and 50 mM DTT and filtered through a 0.2 μm cellulose acetate membrane (Schleicher & Schuell) using a BRL dot-blot filtration unit. Captured aggregates were detected by incubation with HD1 IgG (diluted 1:5000) followed by incubation with alkaline phosphatase conjugated anti-rabbit IgG and the fluorescent substrate AttoPhos. Quantitation of the captured aggregates was performed using a Fuji-imager (LAS 2000) and AIDA 1.0 image analysis software.
Using this assay SDS-resistant huntingtin protein aggregates can be immunologically detected and quantified.

The test system of a further assay is EGFP-HD72Q. Kind of assay: Immunoblot of EGFP-HD72Q expression in GA treated COS-1 cells. Type of assay: cell-based. The note with it: GA 18-360 nM, 40 hours. How it is done: as §4, §5
Control cells were treated with DMSO. […]
SDS-PAGE and Western blot analysis was performed according to standard procedures. […] Captured aggregates were detected by incubation with HD1 IgG (diluted 1:5000) followed by incubation with alkaline phosphatase conjugated anti-rabbit IgG and the fluorescent substrate AttoPhos. Quantitation of the captured aggregates was performed using a Fuji-imager (LAS 2000) and AIDA 1.0 image analysis software.

Another assay has as its system Hsp40. As to the kind of experiment: Immunoblot of Hsp40 expression in GA treated COS-1 cells expressing EGFP-HD72Q. The conditions noted are these: GA 360 nM, 40 hours. Type of assay: cell-based. How it is done:
as §1, §2, §3

For the compound `COC1=C2C[C@@H](C)C[C@H](OC)[C@H](O)[C@@H](C)/C=C(\C)[C@H](OC(N)=O)[C@@H](OC)/C=C\C=C(/C)C(=O)NC(=CC1=O)C2=O` [GA, Geldanamycin], in the assay with Hsp70, the “up-regulation of Hsp70 compared to the untreated controls” value is 3-4 fold. Besides, the “reduction of the amount of insoluble protein aggregates” value is listed as “approximately 30%” in assay [1] (GA 18 nM), roughly 60% in assay [1] (GA 90 nM), roughly 70% in assay [1] (GA 180 nM) and roughly 80% in assay [1] (GA 360 nM). Besides, the “effect on EGFP-HD72Q expression” value in the assay with EGFP-HD72Q is “no effect”. In addition, in the assay with Hsp40, the “up-regulation of Hsp40 compared to the untreated controls” value is listed as 3-4 fold.
